Laboratory results from patent publication US9708311B2, “Benzimidazole derivatives as EP4 antagonists” (BAYER PHARMA AKTIENGESELLSCHAFT, priority 2012, dated 2017).

target: human EP4 receptor (Homo sapiens (Human), UniProt P35408); assay: Test for antagonism of the human EP4 receptor signal (cAMP HTRF); assay type: cell-based; conditions: cells expressing hEP4, PGE2 at EC80 (0.4 nM), cAMP TR-FRET; read-out: Antagonism hEP4 IC50
Text: The binding of the agonist prostaglandin E2 (PGE2) to the EP4 subtype of human hPGE2-R (hEP4-R) induces the activation of membrane-bound adenylate cyclases and thus the formation of cAMP. In the presence of the phosphodiesterase inhibitor IBMX, this cAMP accumulates intracellularly and is employed in a competitive detection procedure after cell lysis. In this procedure, it competes with a fluorescence-labelled cAMP (cAMP-d2) for binding to an Eu cryptate-labelled anti-cAMP antibody. In the absence of cellular cAMP, a complex is formed between the Eu cryptate-labelled anti-cAMP antibody and the cAMP-d2 molecule, which after excitation at 337 nm makes possible an energy transfer based on FRET (fluorescence resonance energy transfer) to the cAMP-d2 tracer and leads to a long-lasting fluorescence signal (emission at 665 and 620 nm). This signal is time-resolved, i.e. measured in a suitable measuring apparatus after decay of the background fluorescence (time resolved; TR-FRET). The wave ratio determination (emission 665 nm/emission 620 nm*10000) moreover makes it possible to standardize individual measurement differences in the added amounts of the detection reagents.
By means of prostaglandin E2 administration and increase in the intracellular cAMP, a lowering of the FRET signal occurs, which in the case of an antagonistic substance action increases again.
A further 20 min at room temperature later, the cell lysate is measured according to the manufacturer's instructions in a TR-FRET-suitable measuring apparatus (compare cAMP HTRF assay kit: Cisbio International 62AM6PEJ high range)

human EP4 receptor, sequence (P35408 whole entry): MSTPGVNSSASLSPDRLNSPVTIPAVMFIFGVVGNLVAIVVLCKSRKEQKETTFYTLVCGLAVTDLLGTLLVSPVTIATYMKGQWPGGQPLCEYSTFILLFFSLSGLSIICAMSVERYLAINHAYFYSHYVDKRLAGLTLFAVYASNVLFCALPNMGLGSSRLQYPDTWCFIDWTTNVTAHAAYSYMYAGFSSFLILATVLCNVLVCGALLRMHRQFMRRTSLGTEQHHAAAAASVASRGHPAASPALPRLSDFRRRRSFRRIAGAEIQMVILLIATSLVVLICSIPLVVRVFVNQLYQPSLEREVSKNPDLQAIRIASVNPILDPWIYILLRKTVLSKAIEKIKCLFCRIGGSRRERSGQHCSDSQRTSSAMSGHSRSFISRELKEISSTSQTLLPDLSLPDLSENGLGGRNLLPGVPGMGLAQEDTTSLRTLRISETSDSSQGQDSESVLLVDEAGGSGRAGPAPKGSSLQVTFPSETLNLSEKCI

Compound	IC50 [nM]
CCn1c2ccccc2c2cc(-c3nc4cc(C#N)ccc4n3CCOC)ccc21 [Example 44, 2-(9-Ethyl-9H-carbazol-3-yl)-1-(2-methoxyethyl)-1H-benzimidazole-5-carbonitrile]	421
CCn1c2ccccc2c2cc(-c3nc4cc(-c5nnn[nH]5)ccc4n3CCOC)ccc21 [Example 45, 9-Ethyl-3-[1-(2-methoxyethyl)-5-(1H-tetrazol-5-yl)-1H-benzimidazol-2-yl]-9H-carbazole]	13.4
CCn1c2ccccc2c2cc(-c3nc4cc(-c5noc(=O)[nH]5)ccc4n3CCOC)ccc21 [Example 46, 3-[2-(9-Ethyl-9H-carbazol-3-yl)-1-(2-methoxyethyl)-1H-benzimidazol-5-yl]-1,2,4-oxadiazol-5(4H)-one]	12.4
CCn1c2ccccc2c2cc(-c3nc4cc(C(=O)NS(=O)(=O)c5cccc(C)c5)ccc4n3CCOC)ccc21 [Example 47, 2-(9-Ethyl-9H-carbazol-3-yl)-1-(2-methoxyethyl)-N-[(3-methylphenyl)sulphonyl]-1H-benzimidazole-5-carboxamide]	25.6
CCn1c2ccccc2c2cc(-c3nc4cc(C(=O)NS(=O)(=O)c5ccc(C)cc5)ccc4n3CCOC)ccc21 [Example 48, 2-(9-Ethyl-9H-carbazol-3-yl)-1-(2-methoxyethyl)-N-[(4-methylphenyl)sulphonyl]-1H-benzimidazole-5-carboxamide]	99.5
CCn1c2ccccc2c2cc(-c3nc4cc(C(=O)NS(=O)(=O)c5ccc(Cl)cc5)ccc4n3CCOC)ccc21 [Example 49, N-[(4-Chlorophenyl)sulphonyl]-2-(9-ethyl-9H-carbazol-3-yl)-1-(2-methoxyethyl)-1H-benzimidazole-5-carboxamide]	61.5
CCn1c2ccccc2c2cc(-c3nc4cc(C(=O)NS(=O)(=O)c5ccccc5)ccc4n3CCOC)ccc21 [Example 50, 2-(9-Ethyl-9H-carbazol-3-yl)-1-(2-methoxyethyl)-N-(phenylsulphonyl)-1H-benzimidazole-5-carboxamide]	33.6
CCn1c2ccccc2c2cc(-c3nc4cc(C(=O)NS(=O)(=O)c5ccc6ccccc6c5)ccc4n3CCOC)ccc21 [Example 51, 2-(9-Ethyl-9H-carbazol-3-yl)-1-(2-methoxyethyl)-N-(2-naphthylsulphonyl)-1H-benzimidazole-5-carboxamide]	95.5
CCn1c2ccccc2c2cc(-c3nc4cc(C(=O)NS(=O)(=O)c5ccccc5OC)ccc4n3CCOC)ccc21 [Example 52, 2-(9-Ethyl-9H-carbazol-3-yl)-1-(2-methoxyethyl)-N-[(2-methoxyphenyl)sulphonyl]-1H-benzimidazole-5-carboxamide]	35.9
CCn1c2ccccc2c2cc(-c3nc4cc(C(=O)NS(=O)(=O)c5ccccc5C)ccc4n3CCOC)ccc21 [Example 53, 2-(9-Ethyl-9H-carbazol-3-yl)-1-(2-methoxyethyl)-N-[(2-methylphenyl)sulphonyl]-1H-benzimidazole-5-carboxamide]	35.3
CCn1c2ccccc2c2cc(-c3nc4cc(C(=O)NS(=O)(=O)c5ccccc5OC(F)(F)F)ccc4n3CCOC)ccc21 [Example 54, 2-(9-Ethyl-9H-carbazol-3-yl)-1-(2-methoxyethyl)-N-{[2-(trifluoromethoxy)phenyl]-sulphonyl}-1H-benzimidazole-5-carboxamide]	17.6
CCn1c2ccccc2c2cc(-c3nc4cc(C(=O)NS(=O)(=O)Cc5ccccc5)ccc4n3CCOC)ccc21 [Example 55, N-(Benzylsulphonyl)-2-(9-ethyl-9H-carbazol-3-yl)-1-(2-methoxyethyl)-1H-benzimidazole-5-carboxamide]	117
CCn1c2ccccc2c2cc(-c3nc4cc(C(=O)NS(=O)(=O)CCc5cccc(Cl)c5)ccc4n3CCOC)ccc21 [Example 56, N-{[2-(3-Chlorophenyl)ethyl]sulphonyl}-2-(9-ethyl-9H-carbazol-3-yl)-1-(2-methoxyethyl)-1H-benzimidazole-5-carboxamide]	238
CCn1c2ccccc2c2cc(-c3nc4cc(C(=O)NS(=O)(=O)CCc5ccccc5C)ccc4n3CCOC)ccc21 [Example 57, 2-(9-Ethyl-9H-carbazol-3-yl)-1-(2-methoxyethyl)-N-{[2-(2-methylphenyl)ethyl]sulphonyl}-1H-benzimidazole-5-carboxamide]	239
CCn1c2ccccc2c2cc(-c3nc4cc(C(=O)NS(=O)(=O)Cc5ccc(F)cc5)ccc4n3CCOC)ccc21 [Example 58, 2-(9-Ethyl-9H-carbazol-3-yl)-N-[(4-fluorobenzyl)sulphonyl]-1-(2-methoxyethyl)-1H-benzimidazole-5-carboxamide]	174
CCn1c2ccccc2c2cc(-c3nc4cc(C(=O)NS(=O)(=O)CCOC)ccc4n3CCOC)ccc21 [Example 59, 2-(9-Ethyl-9H-carbazol-3-yl)-1-(2-methoxyethyl)-N-[(2-methoxyethyl)sulphonyl]-1H-benzimidazole-5-carboxamide]	16.9
CCn1c2ccccc2c2cc(-c3nc4cc(C(=O)NS(=O)(=O)Cc5c(Cl)cccc5Cl)ccc4n3CCOC)ccc21 [Example 60, N-[(2,6-Dichlorbenzyl)sulphonyl]-2-(9-ethyl-9H-carbazol-3-yl)-1-(2-methoxyethyl)-1H-benzimidazole-5-carboxamide]	19.8
CCn1c2ccccc2c2cc(-c3nc4cc(C(=O)NS(=O)(=O)CCc5ccccc5Cl)ccc4n3CCOC)ccc21 [Example 61, N-{[2-(2-Chlorophenyl)ethyl]sulphonyl}-2-(9-ethyl-9H-carbazol-3-yl)-1-(2-methoxyethyl)-1H-benzimidazole-5-carboxamide]	167
CCn1c2ccccc2c2cc(-c3nc4cc(C(=O)NS(=O)(=O)Cc5ccc(C(F)(F)F)cc5)ccc4n3CCOC)ccc21 [Example 62, 2-(9-Ethyl-9H-carbazol-3-yl)-1-(2-methoxyethyl)-N-{[4-(trifluoromethyl)benzyl]sulphonyl}-1H-benzimidazole-5-carboxamide]	186
CCn1c2ccccc2c2cc(-c3nc4cc(C(=O)NS(=O)(=O)c5ccc(C)cn5)ccc4n3CCOC)ccc21 [Example 63, 2-(9-Ethyl-9H-carbazol-3-yl)-1-(2-methoxyethyl)-N-[(5-methylpyridin-2-yl)sulphonyl]-1H-benzimidazole-5-carboxamide]	117
CCn1c2ccccc2c2cc(-c3nc4cc(C(=O)NS(=O)(=O)Cc5ccc(Cl)cc5)ccc4n3CCOC)ccc21 [Example 64, N-[(4-Chlorobenzyl)sulphonyl]-2-(9-ethyl-9H-carbazol-3-yl)-1-(2-methoxyethyl)-1H-benzimidazole-5-carboxamide]	138
CCn1c2ccccc2c2cc(-c3nc4cc(C(=O)NS(=O)(=O)Cc5ccccc5OC(F)(F)F)ccc4n3CCOC)ccc21 [Example 65, 2-(9-Ethyl-9H-carbazol-3-yl)-1-(2-methoxyethyl)-N-{[2-(trifluoromethoxy)benzyl]-sulphonyl}-1H-benzimidazole-5-carboxamide]	133
CCn1c2ccccc2c2cc(-c3nc4cc(C(=O)NS(=O)(=O)CC(C)(C)C)ccc4n3CCOC)ccc21 [Example 66, N-[(2,2-Dimethylpropyl)sulphonyl]-2-(9-ethyl-9H-carbazol-3-yl)-1-(2-methoxyethyl)-1H-benzimidazole-5-carboxamide]	16.1
CCn1c2ccccc2c2cc(-c3nc4cc(C(=O)NS(=O)(=O)Cc5c(C)cccc5Cl)ccc4n3CCOC)ccc21 [Example 67, N-[(2-Chloro-6-methylbenzyl)sulphonyl]-2-(9-ethyl-9H-carbazol-3-yl)-1-(2-methoxy-ethyl)-1H-benzimidazole-5-carboxamide]	36.9
CCn1c2ccccc2c2cc(-c3nc4cc(C(=O)NS(=O)(=O)Cc5ncccc5C)ccc4n3CCOC)ccc21 [Example 68, 2-(9-Ethyl-9H-carbazol-3-yl)-1-(2-methoxyethyl)-N-{[(3-methylpyridin-2-yl)methyl]-sulphonyl}-1H-benzimidazole-5-carboxamide]	36.3
CCn1c2ccccc2c2cc(-c3nc4cc(C(=O)NS(=O)(=O)CCc5cccc(OC)c5)ccc4n3CCOC)ccc21 [Example 69, 2-(9-Ethyl-9H-carbazol-3-yl)-1-(2-methoxyethyl)-N-{[2-(3-methoxyphenyl)ethyl]-sulphonyl}-1H-benzimidazole-5-carboxamide]	155
CCn1c2ccccc2c2cc(-c3nc4cc(C(=O)O)ccc4n3CCN3CCOCC3)ccc21 [Example 70, 2-(9-Ethyl-9H-carbazol-3-yl)-1-[2-(morpholin-4-yl)ethyl]-1H-benzimidazole-5-carboxylic acid]	2460
CCOC(=O)c1ccc2c(c1)nc(-c1ccc3c(c1)c1ccccc1n3CC)n2CCN(C)C [Example 71, Ethyl-1-[2-(dimethylamino)ethyl]-2-(9-ethyl-9H-carbazol-3-yl)-1H-benzimidazole-5-carboxylate]	872
CCn1c2ccccc2c2cc(-c3nc4cc(C(=O)O)ccc4n3CCN(C)C)ccc21 [Example 72, 1-[2-(Dimethylamino)ethyl]-2-(9-ethyl-9H-carbazol-3-yl)-1H-benzimidazole-5-carboxylic acid]	82.5
